Assay: in vitro
Conditions: human, hela cells, % viability

Row | Structure (SMILES) | viability at 28.5 h, 10 µM [%]
1 | COc1cc(OC)cc(-c2nnc(SCc3cccc(C(=O)O)c3)[nH]2)c1 [CBK268736] | 108
2 | COc1ccccc1C(CNC(=O)Nc1cc(C)on1)N1CCCC1 (centres unmarked) [CBK304586] | 94.5
3 | O=C(Nc1ccc(Cc2ccncc2)cc1)c1ccc(CSc2ccc(Cl)cc2)cc1 [CBK262526] | 86.9
4 | C[C@H](Nc1cncc(-c2ccc3c(c2)OCO3)n1)c1ccccc1 [CBK065962] | 90.3
5 | Cc1ccc(/C(N)=N/OC(=O)CN(C)S(=O)(=O)c2ccc3ccccc3c2)cc1 [CBK267363] | 104
6 | CN(C)CCNc1c(N)c(=O)oc2ccccc12 [CBK261472] | 89.7
7 | O=C(NC/C=C/c1cn(C2CC(O)C(CO)O2)c(=O)[nH]c1=O)C(F)(F)F (centres unmarked) [CBK201249] | 109
8 | COc1cc2c(cc1OC)CN(S(=O)(=O)c1cc(C(=O)O)ccc1Cl)CC2 [CBK296923] | 96
9 | COc1ccc(Cc2cccc(C3CCN(C(=O)Cc4ccc(F)cc4)CC3)n2)cc1 [CBK286225] | 95.6
10 | Nc1cccc(-c2cncc(NCC3CCOCC3)n2)c1 [CBK037221] | 96.8
11 | C1CCc2nnc(C34CC5CC(CC(C5)C3)C4)n2CC1 [CBK200068] | 83.5
12 | Cc1nnc(C(C)Sc2nnc(N3CCC(C)CC3)n2Cc2ccco2)o1 (centres unmarked) [CBK298311] | 96.6
13 | Cc1nc2sccn2c1CN1CCCC(C(=O)N2CCOCC2)C1 (centres unmarked) [CBK305390] | 97.6
14 | Cc1ccc2c(c1)C(NC(=O)C1CCN(S(C)(=O)=O)CC1)CC(C)(C)O2 (centres unmarked) [CBK307604] | 109
15 | COc1cc(/C=C(/C#N)C(N)=O)cc(Br)c1O [CBK017409] | 88.1
16 | CCCCN(C)C(=O)Cn1nc(C)c2ccccc2c1=O [CBK305050] | 81.4
17 | Cc1sc2nc(C(C)N3CCN(Cc4ccco4)CC3)[nH]c(=O)c2c1C (centres unmarked) [CBK306066] | 93.7
18 | CS(=O)(=O)c1ccc(-c2ccc3c(c2)COC(C2CCN(C(=O)c4ccccc4O)CC2)O3)cc1 (centres unmarked) [CBK158682] | 85.3
19 | COc1ccc(-c2ccc(-c3cc(C(=O)O)c4ccccc4n3)o2)cc1 [CBK300542] | 75.5
20 | N#Cc1cccc(S(=O)(=O)Nc2cccc3[nH]ccc23)c1 [CBK155771] | 60.6
21 | Cn1ccnc1Sc1nc2ccccc2nc1N1CCCC1 [CBK093791] | 92.4
22 | O=C(O)CC(NC(=O)c1ccco1)c1ccc(F)cc1 (centres unmarked) [CBK057988] | 107

Row | Structure (SMILES) | viability at 28.5 h, 10 µM [%]
23 | CC1(C)C[C@H](NC(=O)c2ccccc2)[C@@]2(CCC(=O)NC3CC3)CC[C@](C)(O)C[C@@H]12 [CBK289045] | 92.6
24 | Cc1ccc(S(=O)(=O)/N=C(/NCc2ccc(Cl)cc2)Nc2nc(C)cc(C)n2)cc1 [CBK263785] | 102
25 | O=C(O)CC(NC(=O)C(c1ccccc1)c1ccccc1)c1ccco1 (centres unmarked) [CBK268729] | 109
26 | COc1ccccc1-c1nccnc1NCc1cc(OC)c(OC)c(OC)c1 [CBK036642] | 90.6
27 | NNC(=O)CSc1nnc(-c2ccc(Cl)cc2)n1-c1ccccc1 [CBK263010] | 81.3
28 | Brc1cnc(-n2cnc3ccccc32)nc1 [CBK288546] | 84.2
29 | Cc1ccc(NC(=O)Nc2cc(S(N)(=O)=O)ccc2C)cc1 [CBK093428] | 98.5
30 | CCC(CC)C(=O)Nc1ccc([C@@H](O)[C@H]2COCC(=O)N2Cc2ccc(OC)cc2)cc1 [CBK289677] | 102
31 | Cc1cccc(Cc2cccc(C3CCCN(S(=O)(=O)c4cn(C)nc4C)C3)n2)c1 (centres unmarked) [CBK286131] | 101
32 | O=C(NCCc1ccc(Cl)cc1)C1(Cc2ccc(-c3ccncc3)cc2)CCOCC1 [CBK285570] | 89
33 | Cc1cc(COc2nccnc2N2CCN(CC3CCCCC3)CC2)no1 [CBK084205] | 94.2
34 | Cc1cccn2cc(CC(=O)NC3(C#N)CCCCC3)nc12 [CBK306252] | 95.2
35 | CC(=O)c1ccc2c3c(cccc13)CC(N(C)C)C2 (centres unmarked) [CBK005691S] | 95.8
36 | CN(C)S(=O)(=O)c1ccc(C(=O)C2=C(O)C(=O)N(CCN3CCOCC3)C2c2ccco2)cc1 (centres unmarked) [CBK264521] | 93.4
37 | Cc1ccc(Nc2nc(N(C)C)nc3[nH]ncc23)cc1 [CBK288098] | 108
38 | Cc1ccc(SCCNC(=O)COc2ccc(Cl)cc2Cl)cc1 [CBK263976] | 86.6
39 | O=C(CN1CCN(CCN2C(=O)c3cccc4cccc(c34)C2=O)CC1)c1ccc(F)cc1 [CBK263414B] | 94.5
40 | O=C(N/N=C\c1cccc(OC(=O)c2cccs2)c1)c1ccc([N+](=O)[O-])cc1 [CBK262289] | 77.3
41 | COCC(=O)N1CCC(NC(=O)N(CCc2ccccc2)Cc2ccccc2)CC1 [CBK174877] | 102
42 | COC(=O)c1c(O)noc1C [CBK023348] | 95.6
43 | CN(CCc1ccncc1)C(=O)CCc1cc(F)ccc1F [CBK304876] | 90.6
44 | CC(=O)Nc1cccc(-c2cncc(N[C@H](CO)C(C)C)n2)c1 [CBK065475] | 98.2

— PMC12040169 (PLOS Biology, 2025)
